In PubChem BioAssay (NCI):
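Five compound concentrations were applied to cells in 96-well plates for 48 hours; endpoints were derived by simple linear interpolation of the resulting dose-response curve. GI50 marks 50% less growth. TGI: total growth inhibition.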

Legend:
Experiment in all cases: inhibition of tumour cell growth, NCI panel, 48 h
A498 renal = system: A498 renal
LOX IMVI melanoma = system: LOX IMVI melanoma
NCI-H23 lung = system: NCI-H23 lung
OVCAR-3 ovarian = system: OVCAR-3 ovarian
RXF 393 renal = system: RXF 393 renal
SNB-19 CNS = system: SNB-19 CNS
UACC-62 melanoma = system: UACC-62 melanoma
SK-MEL-2 melanoma = system: SK-MEL-2 melanoma
DU-145 prostate = system: DU-145 prostate
NCI/ADR-RES ovarian = system: NCI/ADR-RES ovarian

Row | SMILES | TGI (A498 renal) [µM] | TGI (LOX IMVI melanoma) [µM] | TGI (NCI-H23 lung) [µM] | TGI (OVCAR-3 ovarian) [µM] | TGI (RXF 393 renal) [µM] | TGI (SNB-19 CNS) [µM] | TGI (UACC-62 melanoma) [µM] | TGI (SK-MEL-2 melanoma) [µM] | GI50 (A498 renal) [µM] | GI50 (DU-145 prostate) [µM] | TGI (DU-145 prostate) [µM] | GI50 (NCI-H23 lung) [µM] | GI50 (OVCAR-3 ovarian) [µM] | GI50 (RXF 393 renal) [µM] | GI50 (SK-MEL-2 melanoma) [µM] | GI50 (SNB-19 CNS) [µM] | GI50 (UACC-62 melanoma) [µM] | GI50 (NCI/ADR-RES ovarian) [µM] | TGI (NCI/ADR-RES ovarian) [µM] | GI50 (LOX IMVI melanoma) [µM]
1 | COc1cc(/C=C2\NC(=O)C3Cc4c(OC)c(C)c(OC)c(OC)c4C2N3C)c(OC)c(C)c1OC (stereo not drawn) | > 100 | > 100 | > 100 | > 100 | > 100 | > 100 | > 100 | – | – | – | – | – | – | – | – | – | – | – | – | –
2 | Cc1[nH]c2ccccc2c1C1=NO/C(=N\O)C(c2c(C)[nH]c3ccccc23)C1 (stereo not drawn) | > 100 | – | > 100 | 70.7 | 87.1 | > 100 | 62.7 | > 100 | – | – | – | – | – | – | – | – | – | – | – | –
3 | O=S1(=O)c2cc(S(=O)(=O)n3ccnc3)ccc2NC2=NCCCN21 | 62.3 | > 100 | > 100 | 47.8 | – | > 100 | > 100 | – | – | – | – | – | – | – | – | – | – | – | – | –
4 | COc1ccc(C2=NN(C(C)=O)C(c3ccc(Oc4ccnc5cc(Cl)ccc45)c(OC)c3)C2)cc1 (stereo not drawn) | 92.2 | – | > 100 | > 100 | 41 | > 100 | > 100 | 26.7 | 15.2 | > 100 | > 100 | 11.9 | 5.4 | 5.04 | 7.13 | 26.8 | 5.35 | – | – | –
5 | CC(=O)NCc1c(C(N)=O)ncn1Cc1ccccc1 | > 100 | > 100 | > 100 | > 100 | > 100 | > 100 | > 100 | – | – | – | – | – | – | – | – | – | – | – | – | –
6 | FC(F)(F)c1cc(NC(=S)N2c3ccccc3-n3cccc3C2c2cccnc2)cc(C(F)(F)F)c1 (stereo not drawn) | 30.3 | – | 20.6 | 9.47 | 35.8 | 29.9 | 24.4 | 31.6 | 13.7 | 10.6 | 24.3 | 7.01 | 3.01 | 11 | 12.7 | 7.55 | 11.7 | 4.18 | 18.2 | –
7 | COc1ccc(-c2oc3c(OC)c(OC)c(OC)c(O)c3c(=O)c2OC)cc1O | 5.93 | – | – | – | 0.504 | – | 19.8 | 0.221 | – | – | – | < 0.01 | < 0.01 | – | – | – | < 0.01 | – | – | –
8 | O=C(Nc1ccccc1Cl)c1ccc(NC2=C(Cl)C(=O)N(C3CCCCC3)C2=O)cc1 | 157 | 20.9 | 21.2 | 28.4 | – | 38.5 | 26.5 | 44.1 | 40.6 | 6.78 | 23.9 | 4.92 | 9.25 | – | 16.7 | 16.9 | 6.78 | 29.3 | 82.8 | 1.68
9 | N#CC1(N2CCCC2)CCC2(CC1)OCCO2 | > 100 | > 100 | > 100 | > 100 | > 100 | > 100 | > 100 | > 100 | – | – | – | – | – | – | – | – | – | – | – | –
10 | CO/C=C(\Br)c1ccc2c(c1)OCO2 | > 100 | – | > 100 | > 100 | > 100 | > 100 | > 100 | > 100 | – | – | – | – | – | – | – | – | – | – | – | –
11 | COc1ccccc1NC(=O)C1=C(C)NC(C)=C(C(=O)Nc2ccccc2OC)C1c1ccccc1Cl | > 100 | > 100 | > 100 | > 100 | – | > 100 | > 100 | > 100 | – | – | – | – | – | – | – | – | – | – | – | –
